According to the supplement of paper PMC8967900:

Assays:
Test in all cases: selective drug sensitivity score (sDSS, relative to normal bone marrow) (sDSS (score)); higher = more potent and effective on the cell line relative to normal bone marrow cells
Settings in all cases: 72 h
CCRF-CEM = system: CCRF-CEM
CCRF-HSB2 = system: CCRF-HSB2
COG-LL-319h = system: COG-LL-319h
COG-LL-332h = system: COG-LL-332h
DND-41 = system: DND-41
HPB-ALL = system: HPB-ALL
KASUMI-10 = system: KASUMI-10
KASUMI-2 = system: KASUMI-2
LC4-1 = system: LC4-1
MHH-CALL-4 = system: MHH-CALL-4
MN-60 = system: MN-60
MOLT-14 = system: MOLT-14
MOLT-16 = system: MOLT-16
NALL-1 = system: NALL-1
NALM-16 = system: NALM-16
NALM-6 = system: NALM-6
REH = system: REH
SEM cells = system: SEM cells
SUP-B15 = system: SUP-B15
TANOUE = system: TANOUE
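Also: ALL cell lines in 384-well plates, five doses spanning 10,000-fold, each plate scaled between vehicle and 100 µmol/L benzalkonium chloride controls, sDSS an adapted area-under-curve metric.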

Row | Compound | selective drug sensitivity score (CCRF-CEM) | selective drug sensitivity score (CCRF-HSB2) | selective drug sensitivity score (COG-LL-319h) | selective drug sensitivity score (COG-LL-332h) | selective drug sensitivity score (DND-41) | selective drug sensitivity score (HPB-ALL) | selective drug sensitivity score (KASUMI-10) | selective drug sensitivity score (KASUMI-2) | selective drug sensitivity score (LC4-1) | selective drug sensitivity score (MHH-CALL-4) | selective drug sensitivity score (MN-60) | selective drug sensitivity score (MOLT-14) | selective drug sensitivity score (MOLT-16) | selective drug sensitivity score (NALL-1) | selective drug sensitivity score (NALM-16) | selective drug sensitivity score (NALM-6) | selective drug sensitivity score (REH) | selective drug sensitivity score (SEM cells) | selective drug sensitivity score (SUP-B15) | selective drug sensitivity score (TANOUE)
1 | CCOc1ccn(-c2ccc(F)cc2)c(=O)c1C(=O)Nc1ccc(Oc2ccnc(N)c2Cl)c(F)c1 (top concentration 2500 nM) | 0.6 | 3.2 | 0 | 3.2 | 0 | 0 | 2.6 | 0 | 0 | 0 | 0 | 0 | 0 | 0 | 1 | 2 | 1.3 | 4.9 | 3.5 | 0
2 | C[C@]1(O)C[C@@H](c2nc(-c3ccc4ccc(-c5ccccc5)nc4c3)c3c(N)nccn32)C1 [Linsitinib] (top concentration 10000 nM) | -3.18 | -2.28 | -1.78 | -2.78 | 4.82 | 2.22 | -2.28 | -0.28 | 0.92 | 0.22 | -3.18 | -3.18 | -3.18 | -0.08 | -3.18 | -3.18 | -3.18 | 0.62 | -3.18 | -3.18
3 | C=CC[C@@H]1/C=C(\C)C[C@H](C)C[C@H](OC)[C@H]2O[C@@](O)(C(=O)C(=O)N3CCCC[C@H]3C(=O)O[C@H](/C(C)=C/[C@@H]3CC[C@@H](O)[C@H](OC)C3)[C@H](C)[C@@H](O)CC1=O)[C@H](C)C[C@@H]2OC [Tacrolimus] (top concentration 10000 nM) | 2.78 | 3.38 | 12.7 | 0.18 | 0.68 | 0.28 | -0.72 | -0.72 | 21.1 | -0.12 | -0.32 | 1.38 | 12.1 | 0.48 | 12.5 | 0.98 | 2.68 | 7.88 | 18.3 | -0.72
4 | C=CC(=O)Nc1cc(Nc2nccc(-c3cn(C)c4ccccc34)n2)c(OC)cc1N(C)CCN(C)C [Osimertinib] (top concentration 2500 nM) | -0.52 | 0.08 | -4.12 | -0.32 | -0.82 | -0.92 | 2.18 | -3.52 | -0.42 | -1.12 | -3.02 | 0.08 | -0.82 | 0.58 | -4.42 | -1.62 | 0.88 | 0.58 | -2.02 | -5.22
5 | COc1cc(C(=O)O)ccc1NC(=O)[C@@H]1N[C@@H](CC(C)(C)C)[C@](C#N)(c2ccc(Cl)cc2F)[C@H]1c1cccc(Cl)c1F [Idasanutlin] (top concentration 10000 nM) | -9.94 | 15.5 | 17 | 14.5 | -11 | -8.54 | 18.4 | 18.2 | 19.1 | 12.3 | 0.46 | 15.6 | 21.3 | -8.44 | -8.74 | 5.66 | 8.16 | -10 | 29.3 | -12.5
6 | CN1CCN(C(=O)c2ccc3cc(CCNc4ncnc5ccc(C#N)cc45)ccc3c2)CC1 [Senexin_B] (top concentration 1000 nM) | 1.7 | 3.8 | -0.6 | 0.6 | -0.6 | -0.6 | 4.5 | -0.6 | -0.6 | -0.6 | 1.4 | 2.1 | 1.8 | -0.6 | -0.6 | 0.9 | -0.6 | -0.6 | 2.8 | 1.1
7 | CN1CCN(C2CCN(C(=O)Nc3cc(Oc4ccc(NC(=O)C5(C(=O)Nc6ccc(F)cc6)CC5)c(F)c4)ccn3)CC2)CC1 [Golvatinib] (top concentration 2500 nM) | -0.14 | 2.96 | -0.14 | 0.86 | -0.04 | 6.76 | 3.26 | -0.14 | 2.46 | -0.14 | -0.14 | -0.14 | -0.14 | -0.14 | -0.14 | 1.06 | 2.46 | 6.56 | 3.56 | -0.14
8 | O=C(O)c1ccc(CN2CCC(CN[C@@H]3C[C@H]3c3ccccc3)CC2)cc1 (top concentration 100000 nM) | -0.02 | -0.12 | -0.62 | 0.08 | -0.62 | -0.62 | -0.62 | -0.62 | -0.02 | 0.58 | -0.62 | -0.62 | 0.28 | -0.32 | -0.62 | -0.62 | -0.22 | 0.28 | -0.52 | -0.62
